Where two headings read alike, the source gives them in different places.
Key:
rat liver cells = test: Ex vivo unscheduled DNA synthesis; format: in vivo; conditions: 75 mg/kg, positive control
Protocol: Groups of young male Sprague-Dawley rats received fexinidazole at doses of 500, 1000, or 2000 mg/kg orally, and the livers were sampled either 2–4 h or 12–14 h after administration. Hepatocyte suspensions were prepared and incubated in the presence of […] thymidine. Slides of fixed hepatocytes were coated in photographic emulsion and stored for 14 days at 4°C in the dark. The silver grains above the nuclei or cytoplasm (background) were counted, providing a measure of DNA uptake during DNA repair. The difference between these two counts indicated the extent of DNA repair (nuclear net grain count).

[1] = Hepatocyte intrinsic clearance and metabolite profile; format: in vitro ADME, human; conditions: human
Protocol: (§1) Fexinidazole was incubated with cryopreserved hepatocytes from male CD-1 mice, male Sprague Dawley rats, male beagle dogs, male cynomolgus monkeys, and from pooled white or African-American human donor samples (purchased commercially), at concentrations of 1 µM and 10 µM. […] The incubated samples were analyzed by LC-MS after extraction into acetonitrile.
Fexinidazole sulfoxide, lot 1106-I-0170, 99.3% purity, and fexinidazole sulfone, lot 1106-I-0171, 99.9% purity, were provided by the Sponsor.
Cryopreserved hepatocytes of five single donors, lots EHI, REL, KSE […]
ZIJ and MRS, were purchased from In Vitro Technologies Inc (Baltimore, Maryland, USA).
The certificates of analysis are reported in Appendix 1.
(§2) Reagents and solvents were of analytical grade and obtained from Sigma-Aldrich (St. Louis, […]
7.5. In Vitro Incubations
(§3) On the day of the experiment a 10 mM stock solution of fexinidazole in DMSO was prepared and, within 3 hours, aliquots of this freshly prepared solution, after suitable dilution, were added to the incubation matrix, to reach fexinidazole final concentrations of 1 and 10 µM. The final percentage of DMSO was 0.01% in the incubation samples for the […]
The cryopreserved hepatocytes were thawed according to the supplier’s procedure and the number of viable cells was determined using the Trypan Blue exclusion method. Viabilities were 92% for lot EHI, 89% for lot REL, 82% for lot KSE, 86% for lot ZIJ and 86% for lot MRS in the intrinsic clearance study. In the metabolite profile study viabilities were 91% for lot EHI, 90% for lot REL, 85% for lot KSE, 84% for lot ZIJ and 87% for lot MRS.
Afterwards, the same amount of viable cells for each donor were pooled and used for the incubations of fexinidazole.
7.5.1. Intrinsic Clearance Study […]
(§4) µM with pooled human hepatocytes (1 million cells/mL) in a final incubation volume of 1 mL Leibovitz L-15 medium, at 37°C. Incubations were performed in duplicate in a 48-well plate under shaking. Sampling was performed using an automatic liquid handling system (Multiprobe II EX, Packard). At 0, 1, 5, 10, 15, 20, 30, 60 and 120 minutes, 50 µL aliquots of the incubates were taken, then 80 µL of ice-cold acetonitrile and 20 µL of 1 µM warfarin in acetonitrile (internal standard) were added, and samples centrifuged at 2000 rpm for 20 min. The supernatant was analyzed by LC-MS/MS. […]
The chemical stability of fexinidazole was checked by incubating the compound at 37°C in the medium alone at t = 0 and 120 minutes.
(§5) For the determination of phase I and phase II activities of hepatocytes, 7-ethoxycoumarin (7-ETC) 1 µM, and 7-hydroxycoumarin (7-HC) 30 µM were used as positive controls and incubated under the same conditions as fexinidazole. Aliquots of incubates were taken at 0, 1, 5, 10, 15, 20, 30, 60 and 120 minutes and processed as fexinidazole samples.
7.5.2. Metabolite Profile Study
For metabolite profiling, fexinidazole was incubated at a concentration of 10 µM with pooled human hepatocytes (1 million cells/mL) in a final incubation volume of 2 mL Leibovitz L-15 medium, at 37°C. Aliquots of the incubation samples were taken at t = 0, 30 and 120 minutes; the metabolism was stopped by the addition of an equal volume of cold acetonitrile and the samples centrifuged at 1100 rpm for 20 min. The supernatant was stored at -20°C until analysis. Control incubations were performed with the compound in the medium alone for 120 minutes.
7.6. Analysis of the Samples of Intrinsic Clearance Study
(§6) The analysis of the samples for intrinsic clearance determination was performed by an LC-MS/MS method, using the following conditions:
(§7) HPLC Equipment and Conditions
HPLC system 1100 binary pump (Agilent, Palo Alto, USA)
Autosampler 2777 (Waters)
(§8) Analytical column Guard Column SB-C8 4.6 x 12.5 mm, 5 µm (Zorbax)
(§9) Column temperature ambient
(§10) Mobile phase A 10 mM ammonium formate pH 4.0: acetonitrile (95:5, v:v)
(§11) Mobile phase B 10 mM ammonium formate pH 4.0: acetonitrile (5:95, v:v) […]
(§12) Gradient conditions Step Total time (min) flow (µL/min) %A % B […]

[2] = as above; format: in vitro ADME, dog; conditions: male, beagle, dog, cryopreserved hepatocytes, 1 µM
Protocol: as §1
(§13) A quality control analysis of fexinidazole was performed via 1H-NMR in DMSO and LC- […]
(§14) provided by the Swiss Tropical Institute (Basel, Switzerland).
as §2
(§15) Cryopreserved hepatocytes from the male CD1 mouse, lot CSI; male Sprague Dawley rat, lot LPL; male beagle dog, lot BWX; male cynomolgus monkey, lot EHH; and pooled human samples, lot MJI, were purchased from In Vitro Technologies Inc (Baltimore, Maryland, […]
(§16) 5.4. In vitro Incubations
as §3
(§17) On the day of experiment, the cryopreserved hepatocytes were thawed following the detailed instructions provided by the supplier.
(§18) The number of viable cells was determined using a Trypan Blue exclusion method.
(§19) 5.4.1. Intrinsic Clearance Study […]
(§20) µM with mouse, rat, dog, monkey and human hepatocytes (300000 cells/mL for the mouse and 1 million cells/mL for the other species) in a final incubation volume of 0.75 mL […]
as §4, with “Incubations” for “µM with pooled human hepatocytes (1 million cells/mL) in a final incubation volume of 1 mL Leibovitz L-15 medium, at 37°C. Incubations”
(§21) the medium alone at t = 0 and 120 minutes.
as §5, with “activity” for “activities”, “(7-EC)” for “(7-ETC)”, “0,” for “0, 1, 5,”, “10,” for “10, 15,”
(§22) 5.4.2. Metabolite Profile Study
(§23) For metabolite profiling, fexinidazole was incubated at a concentration of 10 µM with mouse, rat, dog, monkey and human hepatocytes (300000 cells/mL for the mouse and 1 million cells/mL for the other species) in a final incubation volume of 2 mL Leibovitz L-15 […]
(§24) Aliquots of the incubation samples were taken at t = 0, 30 and 120 minutes; the metabolism was stopped by the addition of an equal volume of cold acetonitrile and the samples centrifuged at 1500 rpm for 20 min. The supernatant was stored at -20°C until analysis. Control incubations were performed with the compound in the medium alone […]
(§25) 5.5. Analysis of Samples for Intrinsic Clearance Determination
as §6, §7
(§26) HPLC system Agilent 1100 binary pump (Agilent, Palo Alto, USA)
(§27) Autosampler CTC Pal (Alfatech, San Jose, USA)
as §8, §9, §10, §11, §12
(§28) MS Equipment and Conditions
(§29) Mass spectrometer API 4000 Triple Quadrupole (MDS-Sciex, Toronto, […]
(§30) Source Turbo Ion Spray (TIS)
(§31) Ion mode Positive for fexinidazole and 7-EC.
(§32) Negative for 7-HC, 7-HC sulphate and 7-HC glucuronide.

[3] = as above; format: in vitro ADME, cynomolgus monkey; conditions: male, cynomolgus, cynomolgus monkey, cryopreserved hepatocytes, 1 µM
Protocol: as §1, §13, §14, §2, §15, §16, §3, §17, §18, §19, §20
as §4, with “Incubations” for “µM with pooled human hepatocytes (1 million cells/mL) in a final incubation volume of 1 mL Leibovitz L-15 medium, at 37°C. Incubations”
as §21
as §5, with “activity” for “activities”, “(7-EC)” for “(7-ETC)”, “0,” for “0, 1, 5,”, “10,” for “10, 15,”
as §22, §23, §24, §25, §6, §7, §26, §27, §8, §9, §10, §11, §12, §28, §29, §30, §31, §32

[4] = as above; format: in vitro ADME, mouse; conditions: male, CD-1, mouse, cryopreserved hepatocytes, 1 µM
Protocol: as §1, §13, §14, §2, §15, §16, §3, §17, §18, §19, §20
as §4, with “Incubations” for “µM with pooled human hepatocytes (1 million cells/mL) in a final incubation volume of 1 mL Leibovitz L-15 medium, at 37°C. Incubations”
as §21
as §5, with “activity” for “activities”, “(7-EC)” for “(7-ETC)”, “0,” for “0, 1, 5,”, “10,” for “10, 15,”
as §22, §23, §24, §25, §6, §7, §26, §27, §8, §9, §10, §11, §12, §28, §29, §30, §31, §32

[5] = as above; format: in vitro ADME, rat; conditions: male, Sprague Dawley, rat, cryopreserved hepatocytes, 1 µM
Protocol: as §1, §13, §14, §2, §15, §16, §3, §17, §18, §19, §20
as §4, with “Incubations” for “µM with pooled human hepatocytes (1 million cells/mL) in a final incubation volume of 1 mL Leibovitz L-15 medium, at 37°C. Incubations”
as §21
as §5, with “activity” for “activities”, “(7-EC)” for “(7-ETC)”, “0,” for “0, 1, 5,”, “10,” for “10, 15,”
as §22, §23, §24, §25, §6, §7, §26, §27, §8, §9, §10, §11, §12, §28, §29, §30, §31, §32

[6] = as above; format: in vitro ADME, human; conditions: human, cryopreserved pooled hepatocytes, 1 µM
Protocol: as §1, §13, §14, §2, §15, §16, §3, §17, §18, §19, §20
as §4, with “Incubations” for “µM with pooled human hepatocytes (1 million cells/mL) in a final incubation volume of 1 mL Leibovitz L-15 medium, at 37°C. Incubations”
as §21
as §5, with “activity” for “activities”, “(7-EC)” for “(7-ETC)”, “0,” for “0, 1, 5,”, “10,” for “10, 15,”
as §22, §23, §24, §25, §6, §7, §26, §27, §8, §9, §10, §11, §12, §28, §29, §30, §31, §32

half-life at 1 µM [1] [min] | CLint scaled at 1 µM ([1]; read-out: CLint in vitro) [mL/min/kg] | hepatocyte CLint at 1 µM ([1]; read-out: CLint in vitro) [µL/min/1e6 cells] | half-life at 1 µM [2] [min] | CLint scaled at 1 µM ([2]; read-out: CLint in vitro) [mL/min/kg] | hepatocyte CLint at 1 µM ([2]; read-out: CLint in vitro) [µL/min/1e6 cells] | half-life at 1 µM [3] [min] | CLint scaled at 1 µM ([3]; read-out: CLint in vitro) [mL/min/kg] | hepatocyte CLint at 1 µM ([3]; read-out: CLint in vitro) [µL/min/1e6 cells] | half-life at 1 µM [4] [min] | CLint scaled at 1 µM ([4]; read-out: CLint in vitro) [mL/min/kg] | hepatocyte CLint at 1 µM ([4]; read-out: CLint in vitro) [µL/min/1e6 cells] | half-life at 1 µM [5] [min] | CLint scaled at 1 µM ([5]; read-out: CLint in vitro) [mL/min/kg] | hepatocyte CLint at 1 µM ([5]; read-out: CLint in vitro) [µL/min/1e6 cells] | half-life at 1 µM [6] [min] | CLint scaled at 1 µM ([6]; read-out: CLint in vitro) [mL/min/kg] | hepatocyte CLint at 1 µM ([6]; read-out: CLint in vitro) [µL/min/1e6 cells] | SMILES | Net nuclear grain count (12–14 h) (rat liver cells)
 |  |  |  |  |  |  |  |  |  |  |  |  |  |  |  |  |  | CC(=O)Nc1ccc2c(c1)Cc1ccccc1-2 [2-acetamidofluorene, reference compound] | 9.8
6.4 | 258 | 108 | 1.7 | 3110 | 405 | 2.5 | 1480 | 272 | 2.6 | 2380 | 901 | 13.2 | 251 | 52.4 | 4.8 | 345 | 144 | CCOc1ccc2ccc(=O)oc2c1 [7-ethoxycoumarin, reference compound] | 

— article PMC3006138, “Fexinidazole – A New Oral Nitroimidazole Drug Candidate Entering Clinical Development for the Treatment of Sleeping Sickness” (PLoS Neglected Tropical Diseases, 2010)
